In PubChem BioAssay (NCI):
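GI50 marks 50% less growth. TGI is the concentration that stops growth completely.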

Tests used:
Test in all cases: growth of human tumour cells (NCI), 384-well format
[1] = system: MDA-MB-435 melanoma
[2] = system: PC-3 prostate
[3] = system: HS 578T breast
[4] = system: RPMI-8226 leukemia
[5] = system: IGROV1 ovarian
[6] = system: UACC-62 melanoma
[7] = system: EKVX NSCLC
[8] = system: HCT-15 colon
[9] = system: K-562 leukemia
[10] = system: MDA-MB-231 breast
[11] = system: HOP-62 NSCLC
[12] = system: CAKI-1 renal
[13] = system: LOX IMVI melanoma
[14] = system: SN12C renal
[15] = system: T-47D breast
[16] = system: OVCAR-5 ovarian
[17] = system: SNB-19 CNS
[18] = system: SK-OV-3 ovarian
[19] = system: M14 melanoma
[20] = system: NCI-H23 lung
[21] = system: SW-620 colon
[22] = system: 786-0 renal
[23] = system: RXF 393 renal
[24] = system: NCI-H522 lung
[25] = system: TK-10 renal
[26] = system: NCI-H460 NSCLC
[27] = system: HCC-2998 colon
[28] = system: OVCAR-8 ovarian
[29] = system: HOP-92 NSCLC
[30] = system: A498 renal
[31] = system: HL-60(TB) leukemia
[32] = system: BT-549 breast
[33] = system: OVCAR-3 ovarian
[34] = system: ACHN renal
[35] = system: OVCAR-4 ovarian
[36] = system: SF-295 CNS
[37] = system: UACC-257 melanoma
[38] = system: UO-31 renal
[39] = system: CCRF-CEM leukemia
[40] = system: MCF7 breast
[41] = system: DU-145 prostate
[42] = system: SF-268 CNS
[43] = system: HT29 colon
[44] = system: KM12 colon
[45] = system: NCI/ADR-RES ovarian
[46] = system: SK-MEL-5 melanoma
[47] = system: SF-539 CNS
[48] = system: SNB-75 CNS
[49] = system: NCI-H226 lung
[50] = system: MALME-3M melanoma
[51] = system: MDA-MB-468 breast
[52] = system: MOLT-4 leukemia
[53] = system: NCI-H322M lung
[54] = system: COLO 205 colon
[55] = system: SR leukemia
[56] = system: SK-MEL-28 melanoma

Q: What does the source list for CC(C)c1cnn2c(NCc3ccccc3)cc(NC[C@H]3CCNC[C@@H]3O)nc12?
A: GI50 [1]: 409 nM; TGI [1]: 1450 nM; GI50 [2]: 271 nM; TGI [2]: 985 nM; GI50 [3]: 214 nM; TGI [3]: 501 nM; GI50 [4]: 16.9 nM; TGI [4]: 56.5 nM; GI50 [5]: 332 nM; TGI [5]: 2870 nM; GI50 [6]: 57.8 nM; TGI [6]: 238 nM; GI50 [7]: 467 nM; TGI [7]: 2530 nM; GI50 [8]: 1300 nM; TGI [8]: 8560 nM; GI50 [9]: 389 nM; TGI [9]: 1960 nM; GI50 [10]: 290 nM; TGI [10]: 1730 nM; GI50 [11]: 131 nM; TGI [11]: 346 nM; GI50 [12]: 317 nM; TGI [12]: 2820 nM; GI50 [13]: 84.5 nM; TGI [13]: 260 nM; GI50 [14]: 168 nM; TGI [14]: 841 nM; GI50 [15]: 404 nM; TGI [15]: 3740 nM; GI50 [16]: 246 nM; TGI [16]: 770 nM; GI50 [17]: 410 nM; TGI [17]: 10500 nM; GI50 [18]: 360 nM; TGI [18]: 6890 nM; GI50 [19]: 292 nM; TGI [19]: 1190 nM; GI50 [20]: 167 nM; TGI [20]: 644 nM; GI50 [21]: 167 nM; TGI [21]: 1660 nM; GI50 [22]: 211 nM; TGI [22]: 1520 nM; GI50 [23]: 251 nM; TGI [23]: 635 nM; GI50 [24]: 164 nM; TGI [24]: 1680 nM; GI50 [25]: 2980 nM; TGI [25]: 14000 nM; GI50 [26]: 22.6 nM; TGI [26]: 64.6 nM; GI50 [27]: 223 nM; TGI [27]: 787 nM; GI50 [28]: 249 nM; TGI [28]: 973 nM; GI50 [29]: 382 nM; TGI [29]: 2340 nM; GI50 [30]: 157 nM; TGI [30]: 599 nM; GI50 [31]: 156 nM; TGI [31]: 291 nM; GI50 [32]: 241 nM; TGI [32]: 519 nM; GI50 [33]: 105 nM; TGI [33]: 578 nM; GI50 [34]: 782 nM; TGI [34]: 11200 nM; GI50 [35]: 154 nM; TGI [35]: 475 nM; GI50 [36]: 419 nM; TGI [36]: 3460 nM; GI50 [37]: 371 nM; TGI [37]: 1660 nM; GI50 [38]: 3870 nM; TGI [38]: 14800 nM; GI50 [39]: 213 nM; TGI [39]: 380 nM; GI50 [40]: 113 nM; TGI [40]: 474 nM; GI50 [41]: 111 nM; TGI [41]: 1780 nM; GI50 [42]: 173 nM; TGI [42]: 411 nM; GI50 [43]: 330 nM; TGI [43]: 10700 nM; GI50 [44]: 128 nM; TGI [44]: 541 nM; GI50 [45]: 13800 nM; TGI [45]: 28900 nM; GI50 [46]: 242 nM; TGI [46]: 655 nM; GI50 [47]: 107 nM; TGI [47]: 345 nM; GI50 [48]: 789 nM; TGI [48]: 2040 nM; GI50 [49]: 193 nM; TGI [49]: 675 nM; GI50 [50]: 345 nM; TGI [50]: 1800 nM; GI50 [51]: 328 nM; TGI [51]: 662 nM; GI50 [52]: 122 nM; TGI [52]: 267 nM; GI50 [53]: 291 nM; TGI [53]: 975 nM; GI50 [54]: 133 nM; TGI [54]: 411 nM; GI50 [55]: 23.5 nM; TGI [55]: 103 nM; GI50 [56]: 226 nM; TGI [56]: 1130 nM

Q: For FC(F)(c1ccc2ncccc2c1)c1nnc2ccc(-c3ccncc3)nn12, which GI50 [3] is on record?
A: < 10 nM

Q: And the TGI [3]?
A: 137 nM

Q: What about the GI50 [4] of the same compound?
A: < 10 nM

Q: And the GI50 [8]?
A: 55.7 nM

Q: What about the TGI [8] of the same compound?
A: > 100000 nM

Q: What about the GI50 [9] of the same compound?
A: 219 nM

Q: What about the TGI [9] of the same compound?
A: > 100000 nM

Q: What about the GI50 [14] of the same compound?
A: 33 nM

Q: And the TGI [14]?
A: > 100000 nM

Q: And the GI50 [16]?
A: 112 nM

Q: What about the TGI [16] of the same compound?
A: > 100000 nM

Q: What about the GI50 [22] of the same compound?
A: 191 nM

Q: What about the TGI [22] of the same compound?
A: > 100000 nM

Q: What about the GI50 [23] of the same compound?
A: 11.2 nM

Q: What about the TGI [23] of the same compound?
A: 206 nM

Q: What about the GI50 [26] of the same compound?
A: < 10 nM

Q: What about the TGI [26] of the same compound?
A: > 100000 nM

Q: And the GI50 [27]?
A: < 10 nM

Q: And the TGI [27]?
A: > 100000 nM

Q: What about the GI50 [36] of the same compound?
A: < 10 nM

Q: What about the TGI [36] of the same compound?
A: 108 nM

Q: And the GI50 [43]?
A: 185 nM

Q: And the TGI [43]?
A: > 100000 nM

Q: What about the GI50 [45] of the same compound?
A: 460 nM

Q: What about the TGI [45] of the same compound?
A: 27200 nM

Q: What about the GI50 [47] of the same compound?
A: 164 nM

Q: And the TGI [47]?
A: > 100000 nM

Q: What about the GI50 [51] of the same compound?
A: 22 nM

Q: What about the TGI [51] of the same compound?
A: 628 nM

Q: And the GI50 [52]?
A: 10.2 nM

Q: And the TGI [52]?
A: 183 nM

Q: What about the GI50 [53] of the same compound?
A: < 10 nM

Q: What about the TGI [53] of the same compound?
A: > 100000 nM

Q: And the GI50 [55]?
A: < 10 nM

Q: And the TGI [55]?
A: 126 nM
